Test results reported in paper PMC8682738, “Constrained peptides mimic a viral suppressor of RNA silencing” (Nucleic Acids Research, 2021).
Positions of bridges follow the written chain, without caps; N, C: chain ends. Non-standard residues stand in square brackets, D forms with d. Residues, ends and D or L forms follow the SMILES beside them. *: point of attachment. FITC = O=C1OC2(c3ccc(O)cc3Oc3cc(O)ccc32)c2ccc(NC(=S)*)cc21; R8 = C=CCCCCCC[C@@](C)(N)C(=O)O; S5 = C=CCCC[C@](C)(N)C(=O)O; AEEA = NCCOCCOCC(=O)O

Assays:
[1] = system: Dicer processing of pre-miR-21; test: Dicer cleavage assay of pre-miR-21; format: biochemical; conditions: pre-miR-21 40 nM; for inhibition of pre-miR-21 maturation by Dicer (in words): Dicer 4 U·ml^−1, peptide 10–600 nM
Procedure: Next, RhDicer (0.5 U·μl^−1 solution; Genlantis) was diluted in buffer (20 mM Tris·HCl, pH 6.8, 100 mM NaCl, 1 mM MgCl2, 1 mM DTT, 5 mM β-mercaptoethanol, 10% glycerol, 0.1% Triton-X 100) to a concentration of 40 U·ml^−1 and then added to the peptide/RNA solutions (final RhDicer concentration: 4 U·ml^−1). The reaction solution was incubated for 150 min at 37°C, then denatured for 5 min at 70°C, and stored at 4°C. Subsequently, a 1:10 dilution in H2O of the reaction solution was performed and added to a Poly(A) Tailing and reverse transcription solution as previously reported ([62]). The samples were incubated at 42°C for 1 h before subsequent inactivation for 5 min at 95°C and cooling to 4°C. Next, qRT-PCR of each sample was performed using the primers miR21–5p–RV1 ([…]), miR21-5p-FW1 ([…]), and miRNA-RT1 ([…]) in a StepOnePlus™ real-time PCR system (Thermo Fisher Scientific). Briefly, 1 μl of template DNA solution was added to a solution of Luna® Universal Probe qPCR Master Mix (New England Biolabs) with a final primer concentration of 125 nM in 20 μl per sample. Samples were initially denatured for 5 min at 95°C followed by 45 temperature cycles of 15 s at 95°C and 30 s at 66°C. The quantification was done using miR-21-5p standard curves. To visualize the inhibitory potential of each peptide the normalized abundance of mature miR-21 (%) is plotted against the peptide concentration (nM).

pal-RNA duplex = test: ITC of N-terminally acetylated peptides with pal-RNA duplex; format: binding; conditions: for fold increased affinity compared to linear peptide wt33: unlabeled analogs, pal-RNA
Procedure: Isothermal titration calorimetry (ITC) was conducted using a MicroCal VP-ITC (Malvern Panalytical). Before measurement, oligonucleotide and peptide samples were dissolved in PBS and degassed using a ThermoVac (Malvern Panalytical) and heated to 30°C. N-terminally acetylated peptides (c = 3–12 μM) were then transferred into the sample cell and oligonucleotides (c = 12–72 μM) were transferred into the syringe. 35 Injections per measurement were performed at 30°C (8 μl injection volume, 2 s injection time, 180 s spacing, high feedback mode) with an initial delay of 60 s and a stirring speed of 307 rpm. Measurements were performed in triplicate. Using the MicroCal LLC ITC software (Origin; OriginLab Corporation), the heat associated with each injection was calculated by integrating the area under the curve in microcalories per second [μca/s] versus time [min] for each injection and then normalized to concentration. A ‘single set of identical binding sites’ model was used to fit the binding curves from which thermodynamic binding parameters (ΔG, ΔH, ΔS, N and Kd) were obtained.

endogenous miR-21 = test: Pull-down of miR-21 from K562 cells; format: cell-based, human; conditions: biotinylated peptide 10 μM, streptavidin beads, qRT-PCR, triplicate
Procedure: 2 × 10^6 K562 cells were incubated with N-terminally biotinylated peptides (c(peptide) = 10 μM, t = 2.5 h) for uptake on a rotating wheel at 37°C. The cells were extensively washed in PBS and lysed in lysis buffer (25 mM HEPES, pH 7.5, 150 mM NaCl, 0.05% IGEPAL CA-630, 1 mM EDTA) supplemented with 0.5 U/μl RNAse inhibitor (Superase-in, ThermoFisher). The lysate was cleared by centrifugation at 21 000 g at 4°C, an aliquot of the supernatant was removed and re-suspended in Trizol, while the remaining was incubated with streptavidin-coupled magnetic beads (Dynabeads M280, ThermoFisher) on a rotating wheel (2 h, 4°C). After magnetic separation and washing (3× in lysis buffer), the beads were re-suspended in 20 μl lysis buffer, re-suspended in Trizol (ThermoFisher), and 400 ng t-RNA was added per sample as a carrier. RNA was extracted from Trizol using the standard protocol and the qRT-PCR was performed according to a previously published protocol ([62]) using the primers h-miR21-3p-FW ([…]), h-miR21-3p-RV ([…]), h-miR21-5p-FW ([…]), h-miR21-5p-RV ([…]) in a CFX96 real-time machine (Bio-Rad). The relative enrichment was calculated as a ratio of copies in the immunoprecipitate over input normalized to the enrichment of the control peptide D1.

ss-RNA miR-21 3´ = test: EMSA with single-stranded RNA; format: binding; conditions: fluorescein-labeled peptide 3 μM, oligonucleotide 9 μM
pal-DNA = test: EMSA with ds DNA analog of pal-RNA; format: binding; conditions: fluorescein-labeled peptide 3 μM, oligonucleotide 9 μM
Procedure: Electrophoretic mobility shift assays (EMSAs) were performed using a Bio-Rad Mini-Protean gel system paired with a direct current (DC) power source (PowerPac™ HC, Bio-Rad). […] After incubation, bound RNA was resolved from peptide-free RNA using 10% non-denaturing polyacrylamide gels at 120 V in running buffer (25 mM Tris (pH 8.0), 200 mM glycine, 20 mM NaCl) at 4°C for 1 h. Visualization of fluorescent gel-bound species was conducted using a Typhoon Trio + fluorescence scanner (GE Healthcare Life Sciences). For nucleic acid visualization, gels were stained using 2 μl of SYBR™ gold nucleic acid gel dye (Molecular Probes) in 20 ml of TAE buffer (40 mM Tris, 1 mM EDTA, 20 mM acetic acid) for 45 min at RT before being visualized using a FluorChem™ gel documentation system (Alpha Innotech). To assess B3 binding to different ds RNA sequences (Supplementary Figure S20), 6 μl solutions containing hairpin RNA (c = 1 μM) and fluorescein-labeled B3 (c = 2 μM) were incubated in binding buffer (TAE and 10% glycerol) at RT for 1 h, and then resolved using 15% non-denaturing polyacrylamide gels (acrylamide/bis-acrylamide (19:1) in TAE) at 150 V in running buffer (TAE) at 4°C for 1.5 h. Visualization of fluorescent gel-bound species was conducted using a Bio-Rad ChemiDoc (Bio-Rad). […]

[2] = N-terminally acetylated peptide, PBS pH 7.4, 30°C, single set of identical binding sites model, triplicate, errors 1σ

SMILES: CC(C)C[C@H](NC(=O)[C@]1(C)CCCC=CCCC[C@](C)(NC(=O)[C@H](CCC(=O)O)NC(=O)[C@H](CO)NC(=O)[C@@H]2CCCN2C(=O)[C@H](CO)NC(=O)[C@H](CCCCN)NC(=O)[C@H](Cc2c[nH]cn2)NC(=O)CNC(=O)[C@H](CCCNC(=N)N)NC(=O)[C@]2(C)CCCC=CCCC[C@](C)(NC(=O)[C@H](CCCCN)NC(=O)[C@H](Cc3c[nH]cn3)NC(=O)[C@H](CCCNC(=N)N)NC(=O)[C@H](CCCCN)NC(=O)[C@H](CCCNC(=N)N)NC(=O)[C@H](CCC(N)=O)NC(=O)[C@H](C)NC(=O)[C@H](CCC(N)=O)NC(=O)[C@H](CCCCN)NC(=O)[C@H](CCCCN)NC(=O)COCCOCCNC(=S)Nc3ccc4c(c3)C(=O)OC43c4ccc(O)cc4Oc4cc(O)ccc43)C(=O)N[C@@H](CC(N)=O)C(=O)N[C@@H](CCCNC(=N)N)C(=O)N[C@@H](CCCCN)C(=O)N2)C(=O)N[C@@H](CCCNC(=N)N)C(=O)N[C@@H](CCCNC(=N)N)C(=O)N[C@@H](CO)C(=O)N1)C(=O)N[C@@H](Cc1c[nH]c2ccccc12)C(=O)N[C@@H](Cc1c[nH]cn1)C(=O)N[C@@H](C)C(=O)N[C@@H](CCCNC(=N)N)C(N)=O [B3] ({FITC-AEEA}-KKQAQRKRHK[S5]NRK[S5]RGHKSPSE[S5]RRS[S5]LWHAR-NH2; staple 11-15, 24-28)
- inhibition of pre-miR-21 maturation by Dicer (in words) [1]: inhibited in a concentration-dependent manner
- IC50 ([1]; recombinant Dicer 4 U·ml^−1, 150 min, 37°C, N-terminally acetylated peptide, qRT-PCR of miR-21, triplicate, read-out: Half-maximal Dicer inhibition): ~0.05 µM
- Kd (pal-RNA duplex; [2]): 0.07 µM
- Kd (pal-RNA duplex; pal-RNA duplex): 0.07 ± 0.001 µM
- fold increased affinity compared to linear peptide wt33 (pal-RNA duplex): 17 fold
- enrichment of miR-21 relative to control peptide D1 (endogenous miR-21): 35 fold
- binding to single-stranded RNA in EMSA (ss-RNA miR-21 3´): did not bind
- binding to ds DNA analog of pal-RNA in EMSA (pal-DNA): did not bind

SMILES: CC(C)C[C@@H]1NC(=O)[C@@](C)(NC(=O)[C@H](CO)NC(=O)[C@H](CCCNC(=N)N)NC(=O)[C@H](CCCNC(=N)N)NC(=O)[C@H](CCC(N)=O)NC(=O)[C@H](CCC(=O)O)NC(=O)[C@H](CO)NC(=O)[C@@H]2CCCN2C(=O)[C@H](CO)NC(=O)[C@H](CCCCN)NC(=O)[C@H](Cc2c[nH]cn2)NC(=O)CNC(=O)[C@H](CCCNC(=N)N)NC(=O)[C@H](CCC(=O)O)NC(=O)[C@H](CCCCN)NC(=O)[C@H](CCCNC(=N)N)NC(=O)[C@H](CC(N)=O)NC(=O)[C@]2(C)CCCC=CCCCCCC[C@@](C)(NC(=O)[C@H](CCC(N)=O)NC(=O)[C@H](CCCCN)NC(=O)[C@H](CCCCN)NC(=O)COCCOCCNC(=S)Nc3ccc4c(c3)C(=O)OC43c4ccc(O)cc4Oc4cc(O)ccc43)C(=O)N[C@@H](CCC(N)=O)C(=O)N[C@@H](CCCNC(=N)N)C(=O)N[C@@H](CCCCN)C(=O)N[C@@H](CCCNC(=N)N)C(=O)N[C@@H](Cc3c[nH]cn3)C(=O)N[C@@H](CCCCN)C(=O)N2)CCCC=CCCC[C@@](C)(C(=O)N[C@@H](CCCNC(=N)N)C(N)=O)NC(=O)[C@H](Cc2c[nH]cn2)NC(=O)[C@H](Cc2c[nH]c3ccccc23)NC1=O [C1] ({FITC-AEEA}-KKQ[R8]QRKRHK[S5]NRKERGHKSPSEQRRS[S5]LWH[S5]R-NH2; staple 4-11, 28-32)
- Kd (pal-RNA duplex; [2]): 0.18 µM
- fold increased affinity compared to linear peptide wt33 (pal-RNA duplex): 7 fold
- enrichment of miR-21 relative to control peptide D1 (endogenous miR-21): enrichment
- binding to single-stranded RNA in EMSA (ss-RNA miR-21 3´): did not bind
- binding to ds DNA analog of pal-RNA in EMSA (pal-DNA): did not bind

SMILES: CC(C)C[C@@H]1NC(=O)[C@H](CCC(=O)O)NC(=O)[C@H](CO)NC(=O)[C@@](C)(NC(=O)[C@H](CCCNC(=N)N)NC(=O)[C@H](CCC(N)=O)NC(=O)[C@H](CCC(=O)O)NC(=O)[C@H](CO)NC(=O)[C@@H]2CCCN2C(=O)[C@H](CO)NC(=O)[C@H](CCCCN)NC(=O)[C@H](Cc2c[nH]cn2)NC(=O)[C@]2(C)CCCC=CCCCCCC[C@@](C)(NC(=O)[C@H](Cc3c[nH]cn3)NC(=O)[C@H](CCCNC(=N)N)NC(=O)[C@H](CCCCN)NC(=O)[C@H](CCCNC(=N)N)NC(=O)[C@H](CCC(N)=O)NC(=O)[C@H](C)NC(=O)[C@H](CCC(N)=O)NC(=O)[C@H](CCCCN)NC(=O)[C@H](CCCCN)NC(=O)COCCOCCNC(=S)Nc3ccc4c(c3)C(=O)OC43c4ccc(O)cc4Oc4cc(O)ccc43)C(=O)N[C@@H](CC(C)C)C(=O)N[C@@H](CC(N)=O)C(=O)N[C@@H](CCCNC(=N)N)C(=O)N[C@@H](CCCCN)C(=O)N[C@@H](CCC(=O)O)C(=O)N[C@@H](CCCNC(=N)N)C(=O)N2)CCCC=CCCC[C@@](C)(C(=O)N[C@@H](Cc2c[nH]cn2)C(=O)N[C@@H](C)C(=O)N[C@@H](CCCNC(=N)N)C(N)=O)NC1=O [D1] ({FITC-AEEA}-KKQAQRKRH[R8]LNRKER[S5]HKSPSEQR[S5]SEL[S5]HAR-NH2; staple 10-17, 26-30)
- inhibition of pre-miR-21 maturation by Dicer (in words) [1]: showed only small effects
